Experimental findings from patent US9096642B2, “Therapeutic compounds for immunomodulation” (Aurigene Discovery Technologies Limited, priority 2011, dated 2015) are described below.

For this experiment, the system named is B16F10 melanoma. Briefly: B16F10 metastasis model (lung metastasis of B16F10 melanoma). The settings on record: 5 mg/kg subcutaneously once daily; after 14 days of treatment; 0.1×10^6 B16F10 cells i.v.; versus vehicle control. Type of experiment: in vivo, C57/b16J mice. On the procedure: In vivo Efficacy of Compound 1 on Metastasis of B16F10 Melanoma
C57/b16J female mice (Aurigene, Bangalore, India) aged 6 to 8 weeks were used for the experiment. Animals were acclimatized for a week in the experimental room before conducting the experiment.
Effect of Compound 001 in B16F10 Metastasis Model
In the case of metastasis model, 0.1×10^6 B16F10 cells were injected to C57/b16J mice through i.v. Compound 001 dissolved in PBS, pH 7.4 was dosed subcutaneously at 5 mg/kg once daily. Vehicle control group of mice received only saline. Each group consisted of ten animals. Body weight and clinical signs were recorded daily. After 14 days of treatment, lung metastasis was quantitated by counting number of nodules under dissection microscope.

On to Compound 001: SEQ ID NO: 3 (SNTSEFS), for which the “reduction in metastasis (lung metastasis quantitated by counting number of nodules)” value was found to be 64%.
